From ChEMBL document CHEMBL4680193, “Isoindoline scaffold-based dual inhibitors of HDAC6 and HSP90 suppressing the growth of lung cancer in vitro and in vivo” (Eur J Med Chem, 2020)
The source made the active and inactive calls. No cut-off for these calls is given here.

How the values were obtained:
[1] = molecular target: Histone deacetylase; assay type: tissue-based, Homo sapiens; conditions: hela
[2] = Toxicity in BALB/c mouse xenografted with human NCI-H1975 cells assessed as reduction in body weight 50 to 100 mg/kg, ip administered for 2 weeks and measured after 2 week; assay type: organism-based; conditions: in vivo, 336 h, dose 50-100 mg/kg
[3] = tested on: NCI-H1975; assay: Induction of cell cycle arrest in human NCI-H1975 cells assessed as increase in subG1 phase at 0.1 to 3 uM incubated for 48 hrs by PI staining based flow cytometry analysis; assay type: functional; conditions: dose 0.1-3 µM
[4] = molecular target: T1, Heat shock protein HSP90 (Homo sapiens) (UniProt P07900+P08238); assay: Inhibition of HSP90 in human NCI-H1975 cells assessed as downregulation of Akt expression at 0.03 to 0.3 uM measured upto 24 hrs by Western blot analysis; assay type: cell-based; conditions: dose 0.03-0.3 µM, time hrs <=24
[5] = molecular target: T1, Heat shock protein HSP90 (Homo sapiens); assay: Inhibition of HSP90 in human NCI-H1975 cells assessed as upregulation of HSP70 expression at 0.03 to 0.3 uM measured upto 24 hrs by Western blot analysis; assay type: cell-based; conditions: dose 0.03-0.3 µM, time hrs <=24
[6] = tested on: NCI-H1975; assay: cells; assay type: functional; conditions: Homo sapiens, time 48 hrs
[7] = tested on: NCI-H1975; assay: Induction of apoptosis in human NCI-H1975 cells assessed as increase in caspase 8 activation incubated for 48 hrs by PI staining based Western blot analysis; assay type: functional, cell-based; conditions: dose 0.1-3 µM
[8] = tested on: NCI-H1975; assay: Induction of apoptosis in human NCI-H1975 cells assessed as increase in caspase 3 activation incubated for 48 hrs by PI staining based Western blot analysis; assay type: functional, cell-based; conditions: dose 0.1-3 µM
[9] = tested on: NCI-H1975; assay: Antitumor activity against human NCI-H1975 cells xenografted in BALB/c mouse assessed as reduction in tumor growth at 50 mg/kg, ip administered for 2 weeks and measured after 2 week relative to control; assay type: functional; conditions: 336 h, read-out: TGI
[10] = tested on: NCI-H1975; assay: Inhibition of IFN-gamma-induced PD-L1 in human NCI-H1975 cells at 0.3 uM incubated for 48 hrs by Flow cytometry analysis; assay type: functional, cell-based
[11] = molecular target: T1, Heat shock protein HSP90 (Homo sapiens); assay: Inhibition of HSP90 in human NCI-H1975 cells assessed as decrease in Akt Ser473 phosphorylation at 3 uM measured after 6 hrs by Western blot analysis; assay type: cell-based
[12] = molecular target: Heat shock protein HSP 90-alpha (Homo sapiens, UniProt P07900); assay: Inhibition of HSP90a (unknown origin)
[13] = tested on: A549; assay: Growth inhibition of human A549 cells incubated for 48 hrs by SRB assay; assay type: functional; conditions: Homo sapiens, A549
[14] = molecular target: Histone deacetylase 1 (Homo sapiens, UniProt Q13547); assay: Inhibition of recombinant human C-terminal FLAG-His-tagged HDAC1 (1 to 482 residues) expressed in Sf21 cells using RHK-K(Ac)-AMC as substrate incubated for 60 mins by fluorimetry analysis
[15] = tested on: NCI-H1975; assay: Induction of apoptosis in human NCI-H1975 cells assessed as increase in PARP activation incubated for 48 hrs by PI staining based Western blot analysis; assay type: functional, cell-based; conditions: dose 0.1-3 µM
[16] = tested on: NCI-H1975; assay: Inhibition of IFN-gamma-induced PD-L1 in human NCI-H1975 cells incubated for 48 hrs by Western blot analysis; assay type: functional, cell-based; conditions: dose 0.3-3 µM
[17] = molecular target: T2, Protein deacetylase HDAC6 (Homo sapiens) (UniProt Q9UBN7); assay: Inhibition of HDAC6 in human NCI-H1975 cells assessed as increase in acetylated alpha tubulin level after 24 hrs by Western blot analysis; assay type: cell-based; conditions: dose 0.1-3 µM
T2 sequence (whole entry): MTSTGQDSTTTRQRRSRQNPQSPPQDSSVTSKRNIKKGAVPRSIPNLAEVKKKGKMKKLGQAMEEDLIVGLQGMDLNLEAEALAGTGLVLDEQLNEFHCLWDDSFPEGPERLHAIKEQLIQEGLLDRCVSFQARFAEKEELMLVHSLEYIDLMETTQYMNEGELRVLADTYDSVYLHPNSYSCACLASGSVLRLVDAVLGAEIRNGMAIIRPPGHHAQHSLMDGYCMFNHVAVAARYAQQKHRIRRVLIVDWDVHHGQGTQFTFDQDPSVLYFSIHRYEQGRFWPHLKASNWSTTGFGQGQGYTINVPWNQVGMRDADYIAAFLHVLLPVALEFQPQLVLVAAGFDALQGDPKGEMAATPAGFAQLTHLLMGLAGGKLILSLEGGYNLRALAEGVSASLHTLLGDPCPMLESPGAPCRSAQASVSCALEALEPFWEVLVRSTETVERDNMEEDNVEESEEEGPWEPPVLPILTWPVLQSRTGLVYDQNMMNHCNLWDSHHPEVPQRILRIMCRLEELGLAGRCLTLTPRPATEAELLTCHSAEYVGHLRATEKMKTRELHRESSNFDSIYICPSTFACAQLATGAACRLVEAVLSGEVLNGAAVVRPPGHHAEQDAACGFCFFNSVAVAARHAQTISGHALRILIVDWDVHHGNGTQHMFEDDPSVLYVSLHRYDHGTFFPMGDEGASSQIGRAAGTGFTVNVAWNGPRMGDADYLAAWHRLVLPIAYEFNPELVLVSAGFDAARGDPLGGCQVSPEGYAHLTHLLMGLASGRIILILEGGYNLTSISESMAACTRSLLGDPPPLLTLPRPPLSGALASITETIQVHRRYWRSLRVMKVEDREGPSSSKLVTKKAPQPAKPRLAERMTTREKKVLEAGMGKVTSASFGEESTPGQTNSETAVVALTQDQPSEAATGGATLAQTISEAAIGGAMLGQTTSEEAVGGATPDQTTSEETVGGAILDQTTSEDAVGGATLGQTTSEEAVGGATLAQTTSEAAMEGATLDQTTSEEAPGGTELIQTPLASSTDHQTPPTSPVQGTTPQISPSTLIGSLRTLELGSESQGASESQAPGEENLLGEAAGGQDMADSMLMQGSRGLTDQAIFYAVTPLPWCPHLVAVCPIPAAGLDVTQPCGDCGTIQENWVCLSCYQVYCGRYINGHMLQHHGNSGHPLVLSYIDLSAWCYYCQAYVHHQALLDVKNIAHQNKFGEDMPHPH

[18] = molecular target: T3, Histone deacetylase 8 (Homo sapiens, UniProt Q9BY41); assay: Inhibition of recombinant human HDAC8 using RHK-K(Ac)-AMC as substrate by fluorescence based assay
T3 sequence (Q9BY41 whole entry): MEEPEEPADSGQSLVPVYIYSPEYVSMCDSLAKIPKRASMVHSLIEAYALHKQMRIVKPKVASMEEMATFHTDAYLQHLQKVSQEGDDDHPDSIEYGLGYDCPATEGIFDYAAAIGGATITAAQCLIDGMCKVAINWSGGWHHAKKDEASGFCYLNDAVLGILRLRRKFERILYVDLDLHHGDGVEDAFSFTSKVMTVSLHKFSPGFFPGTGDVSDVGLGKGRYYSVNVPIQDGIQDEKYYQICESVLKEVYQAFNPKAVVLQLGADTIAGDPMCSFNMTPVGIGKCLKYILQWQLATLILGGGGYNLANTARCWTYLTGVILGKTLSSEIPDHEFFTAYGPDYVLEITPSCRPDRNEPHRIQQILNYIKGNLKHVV

[19] = molecular target: Histone deacetylase 3 (Homo sapiens, UniProt O15379)
Chain of Histone deacetylase 3 (O15379 whole entry): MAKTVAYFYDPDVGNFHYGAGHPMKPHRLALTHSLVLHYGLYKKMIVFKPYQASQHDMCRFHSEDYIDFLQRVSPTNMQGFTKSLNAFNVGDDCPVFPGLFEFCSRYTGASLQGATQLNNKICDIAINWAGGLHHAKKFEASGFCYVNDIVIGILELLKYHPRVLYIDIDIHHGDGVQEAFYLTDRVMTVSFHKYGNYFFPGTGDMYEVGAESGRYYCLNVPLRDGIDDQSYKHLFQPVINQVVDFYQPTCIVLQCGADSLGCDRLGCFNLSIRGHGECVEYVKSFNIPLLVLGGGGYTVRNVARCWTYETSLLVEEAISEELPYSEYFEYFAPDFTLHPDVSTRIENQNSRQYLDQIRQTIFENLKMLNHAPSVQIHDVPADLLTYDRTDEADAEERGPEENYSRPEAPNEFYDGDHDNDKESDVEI

Chain of Histone deacetylase 1 (Q13547 whole entry, the tested form may be a part): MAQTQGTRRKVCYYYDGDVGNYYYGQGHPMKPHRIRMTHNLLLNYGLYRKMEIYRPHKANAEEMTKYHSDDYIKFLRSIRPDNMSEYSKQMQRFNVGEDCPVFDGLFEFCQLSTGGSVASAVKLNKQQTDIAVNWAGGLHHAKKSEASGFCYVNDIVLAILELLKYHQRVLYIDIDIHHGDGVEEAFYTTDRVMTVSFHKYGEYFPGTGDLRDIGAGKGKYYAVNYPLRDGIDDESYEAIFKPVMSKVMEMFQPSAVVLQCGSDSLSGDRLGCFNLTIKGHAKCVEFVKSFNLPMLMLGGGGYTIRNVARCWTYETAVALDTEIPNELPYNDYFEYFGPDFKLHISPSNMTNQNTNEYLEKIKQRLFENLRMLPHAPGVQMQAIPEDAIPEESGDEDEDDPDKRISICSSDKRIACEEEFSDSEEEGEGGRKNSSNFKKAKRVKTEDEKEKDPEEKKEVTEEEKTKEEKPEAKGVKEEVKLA

CC(C)c1cc(C(=O)N2Cc3ccc(NC(=O)CCCCCCCCC(=O)NO)cc3C2)c(O)cc1O
IC50 [1]: 388.8 nM | Activity [2]: Non-Toxic | Activity [3]: Active | inhibition [4]: Active | inhibition [5]: Active | GI50 [6]: 520 nM | Activity [7]: Dose-dependent effect | Activity [8]: Dose-dependent effect | inhibition in vivo at 50 mg/kg [9]: 44.8% | inhibition [10]: Active | inhibition [11]: Active | IC50 [12]: 46.8 nM | GI50 [13]: 760 nM | IC50 [14]: 1880 nM | Activity [15]: Dose-dependent effect | inhibition [16]: Dose-dependent effect | inhibition [17]: Dose-dependent effect | IC50 [18]: 3720 nM | IC50 [19]: 1310 nM
